Earlier results on one substance are cited in article PMC6166790 (Nature, 2018).

For this series, the system named is CLR/RAMP2 or CLR/RAMP3.

Consider adrenomedullin [AM], for which the receptor response selectivity result is listed as “selective AM responses”.
